Results from article PMC7116837 (Nature microbiology, 2021).

Tests used:
[1] = target: T1, VSGsur (Variant Surface Glycoprotein VSGsur) (Trypanosoma brucei, UniProt A0A291L8F4); assay: ITC and […] Å co-crystal structure; format: binding
T1 sequence (A0A291L8F4 30-475): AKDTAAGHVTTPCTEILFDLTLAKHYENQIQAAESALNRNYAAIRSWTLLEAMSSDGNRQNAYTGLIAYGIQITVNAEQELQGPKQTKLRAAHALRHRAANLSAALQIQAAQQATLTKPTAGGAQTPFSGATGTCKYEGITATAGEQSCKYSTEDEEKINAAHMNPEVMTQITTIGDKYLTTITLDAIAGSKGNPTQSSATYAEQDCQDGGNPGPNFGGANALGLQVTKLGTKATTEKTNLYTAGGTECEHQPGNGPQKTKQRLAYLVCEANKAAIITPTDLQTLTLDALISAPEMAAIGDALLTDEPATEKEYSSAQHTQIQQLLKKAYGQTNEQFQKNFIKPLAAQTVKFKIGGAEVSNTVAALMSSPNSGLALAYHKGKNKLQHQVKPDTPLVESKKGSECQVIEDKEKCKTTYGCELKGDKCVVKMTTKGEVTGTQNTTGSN

[2] = target: Variant Surface Glycoprotein VSG13, N-terminal domain (T. brucei brucei Lister 427); assay: crystal structure
[3] = target: T2, VSGsur (Variant Surface Glycoprotein VSGsur) (Trypanosoma brucei, UniProt A0A291L8F4); assay: crystal structure; format: binding
T2 sequence (A0A291L8F4 30-408): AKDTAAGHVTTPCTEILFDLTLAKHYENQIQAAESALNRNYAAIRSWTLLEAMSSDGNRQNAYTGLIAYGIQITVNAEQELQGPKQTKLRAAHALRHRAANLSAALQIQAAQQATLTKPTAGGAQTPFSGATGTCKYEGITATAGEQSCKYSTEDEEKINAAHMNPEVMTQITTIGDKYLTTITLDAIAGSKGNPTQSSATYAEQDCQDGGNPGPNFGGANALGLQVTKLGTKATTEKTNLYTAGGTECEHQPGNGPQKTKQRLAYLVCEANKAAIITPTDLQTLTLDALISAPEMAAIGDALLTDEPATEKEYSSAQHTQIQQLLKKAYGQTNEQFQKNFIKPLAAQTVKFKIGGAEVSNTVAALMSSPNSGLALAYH

[4] = target: Variant Surface Glycoprotein VSGsur, N-terminal domain (T. brucei rhodesiense); assay: crystal structure

Cc1ccc(C(=O)Nc2ccc(S(=O)(=O)O)c3cc(S(=O)(=O)O)cc(S(=O)(=O)O)c23)cc1NC(=O)c1cccc(NC(=O)Nc2cccc(C(=O)Nc3cc(C(=O)Nc4ccc(S(=O)(=O)O)c5cc(S(=O)(=O)O)cc(S(=O)(=O)O)c45)ccc3C)c2)c1 [suramin]
Kd [1]: 234 ± 28 nM

Variant Surface Glycoprotein VSG13, N-terminal domain (domain or fragment)
stoichiometry N [2]: 2

Nc1c(I)c(C(=O)O)c(I)c(C(=O)O)c1I [I3C, 5-amino-2,4,6-triiodoisophthalic acid]
crystal structure (50 mM overnight soak, phasing compound) [3]: occupies the same position as the suramin benzene groups, stacking similarly with H122

Variant Surface Glycoprotein VSGsur, N-terminal domain (domain or fragment)
stoichiometry N [4]: 2
